The results in this text go back to US20260285802A1, “MODULATORS OF SORTILIN ACTIVITY” (priority 2023, published 2026).

The term pKd denotes the Kd on a negative log10 scale, so that one unit is a factor of ten. Lower therefore signals a high Kd.

pKd: −log10 of the molar value.

The experiment deals with T1, Human (6-His) Sortilin (Homo sapiens, UniProt Q99523).
T1 sequence (Q99523 78-831): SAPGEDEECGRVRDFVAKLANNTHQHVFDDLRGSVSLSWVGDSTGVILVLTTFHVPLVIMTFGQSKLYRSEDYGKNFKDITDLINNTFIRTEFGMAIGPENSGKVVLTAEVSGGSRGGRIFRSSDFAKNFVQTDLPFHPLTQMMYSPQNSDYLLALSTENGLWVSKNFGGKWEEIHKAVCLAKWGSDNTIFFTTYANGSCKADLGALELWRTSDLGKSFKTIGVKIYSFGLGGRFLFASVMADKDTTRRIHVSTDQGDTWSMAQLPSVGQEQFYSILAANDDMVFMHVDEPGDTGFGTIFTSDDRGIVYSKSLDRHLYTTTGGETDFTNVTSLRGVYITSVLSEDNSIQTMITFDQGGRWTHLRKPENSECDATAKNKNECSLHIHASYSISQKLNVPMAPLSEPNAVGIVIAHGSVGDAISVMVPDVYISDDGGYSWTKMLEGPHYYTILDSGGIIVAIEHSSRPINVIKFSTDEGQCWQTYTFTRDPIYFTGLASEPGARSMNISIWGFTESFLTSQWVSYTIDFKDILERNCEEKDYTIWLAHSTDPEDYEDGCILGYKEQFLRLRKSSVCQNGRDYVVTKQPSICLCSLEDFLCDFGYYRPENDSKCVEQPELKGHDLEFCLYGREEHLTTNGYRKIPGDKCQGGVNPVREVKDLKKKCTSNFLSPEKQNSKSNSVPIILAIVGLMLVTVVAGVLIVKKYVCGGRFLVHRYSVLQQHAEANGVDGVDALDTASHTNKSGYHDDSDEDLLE
Nature of the experiment: biochemical.
Consider `CC(C)(C)CCC(Nc1ccccc1)c1nnn[nH]1` (racemic) [Example 39, N-phenyl[4,4-dimethyl-1-(2H-tetraazol-5-yl)pentyl]amine], for which the pKd was 5.55.
As for `CC(C)CC(Nc1cccnc1)c1nnn[nH]1` (racemic) [Example 63, [3-methyl-1-(2H-tetraazol-5-yl)butyl]-3-pyridylamine], the pKd was 4.33.
The compound `CC(C)CC(Nc1ccccc1)c1nnn[nH]1` (racemic) [Example 67, [3-methyl-1-(2H-tetraazol-5-yl)butyl]aniline] had a negative logarithm of the Kd (pKd) of 3.95.
On to `COc1ccc2c(NC(CCC(C)(C)C)c3nnn[nH]3)ncnc2c1` (racemic) [Example 85, [4,4-dimethyl-1-(2H-tetraazol-5-yl)pentyl](7-methoxy-4-quinazolinyl)amine], for which the pKd is 7.04.
Compound `CC(C)(C)CCC(Nc1ncnc2cc(C(F)(F)F)ccc12)c1nnn[nH]1` (racemic) [Example 87, [4,4-dimethyl-1-(2H-tetraazol-5-yl)pentyl][7-(trifluoromethyl)-4-quinazolinyl]amine] gave a pKd of 6.45.
The figure for `Cc1nc(NC(CCC(C)(C)C)c2nnn[nH]2)c2ccccc2n1` (racemic) [Example 89, [4,4-dimethyl-1-(2H-tetraazol-5-yl)pentyl](2-methyl-4-quinazolinyl)amine] is 7.07; for `Cc1nc(N[C@@H](CCC(C)(C)C)C(=O)O)c2ccccc2n1` [Example 118, (S)-5,5-Dimethyl-2-((2-methylquinazolin-4-yl)amino)hexanoic acid] it is 7.74; for `CC(C)(C)CC[C@H](Nc1nc(C2CC2)nc2ccccc12)C(=O)O` [Example 119, (S)-2-((2-Cyclopropylquinazolin-4-yl)amino)-5,5-dimethylhexanoic acid] it is 7.85.
